Laboratory results: ChEMBL document CHEMBL1649149, “Sitafloxacin and garenoxacin may overcome the antibiotic resistance of Helicobacter pylori with gyrA mutation” (2009)
Converted amounts (≈) assume the structure as drawn.

Experiments:
Type in all cases: functional
Helicobacter pylori [1] = test: Antibacterial activity against Helicobacter pylori infected in human assessed as bacterial eradication rate at 20 mg, po BID for 7 days
Helicobacter pylori [2] = test: Antibacterial activity against Helicobacter pylori infected in human assessed as bacterial eradication rate at 1 g, po BID for 7 days
Helicobacter pylori [3] = test: Antibacterial activity against Helicobacter pylori harboring gyrA mutant gene infected in human assessed as bacterial eradication rate after 7 days
Helicobacter pylori [4] = test: Antibacterial activity against Helicobacter pylori infected in human assessed as bacterial eradication rate at 400 mg, po QD for 7 days
Helicobacter pylori [5] = test: Antibacterial activity against Helicobacter pylori harboring gyrA mutant gene by agar dilution method
Helicobacter pylori [6] = test: Antibacterial activity against Helicobacter pylori harboring gyrA mutant gene assessed as resistant isolates
Helicobacter pylori [7] = test: Antibacterial activity against Helicobacter pylori harboring gyrA mutant gene
Helicobacter pylori [8] = test: Antibacterial activity against Helicobacter pylori infected in human assessed as bacterial eradication rate at 20 mg, po BID for 10 days by 13C-urea breath test
Helicobacter pylori [9] = test: Antibacterial activity against GAT-susceptible Helicobacter pylori infected in human assessed as bacterial eradication rate for 7 days
Helicobacter pylori [10] = test: Antibacterial activity against Helicobacter pylori

SMILES	Activity (Helicobacter pylori [1])	Activity (Helicobacter pylori [2])	Activity (Helicobacter pylori [3])	Activity (Helicobacter pylori [4])	MIC50 (Helicobacter pylori [5])	MIC90 (Helicobacter pylori [5])	also measured
CC1(C)S[C@@H]2[C@H](NC(=O)[C@H](N)c3ccc(O)cc3)C(=O)N2[C@H]1C(=O)O [AMOXICILLIN]	84.4%	84.4%	33.3%	84.4%	–	–	–
C[C@H]1NCc2cc(-c3ccc4c(=O)c(C(=O)O)cn(C5CC5)c4c3OC(F)F)ccc21 [GARENOXACIN]	–	–	–	–	0.5 µg/mL (≈ 1.17 µM)	1 µg/mL (≈ 2.35 µM)	–
COc1c(N2CCNC(C)C2)c(F)cc2c(=O)c(C(=O)O)cn(C3CC3)c12 (configuration not stated) [GATIFLOXACIN]	84.4%	84.4%	33.3%	84.4%	2 µg/mL (≈ 5.33 µM)	4 µg/mL (≈ 10.7 µM)	Activity (Helicobacter pylori [6]): 47.9%; MIC (Helicobacter pylori [7]): ≥ 1 µg/mL
COc1ccc2[nH]c([S+]([O-])Cc3ncc(C)c(OC)c3C)nc2c1 (configuration not stated) [OMEPRAZOLE]	–	–	–	–	–	–	Activity (Helicobacter pylori [8]): 66%
COCCCOc1ccnc(C[S+]([O-])c2nc3ccccc3[nH]2)c1C (configuration not stated) [RABEPRAZOLE]	84.4%	84.4%	–	84.4%	–	–	Activity (Helicobacter pylori [9]): 100%
N[C@@H]1CN(c2c(F)cc3c(=O)c(C(=O)O)cn([C@@H]4C[C@@H]4F)c3c2Cl)CC12CC2 [SITAFLOXACIN ANHYDROUS]	–	–	–	–	0.12 µg/mL (≈ 0.293 µM)	0.25 µg/mL (≈ 0.61 µM)	MIC90 (Helicobacter pylori [10]): < 0.008 µg/mL
